In patent US10172868B2, “Substituted quinazolines for inhibiting kinase activity” (NeuPharma, Inc., priority 2013, dated 2019):

Legend:
[1] = molecular target: EGFR (ErbB1) T790M L858R (Homo sapiens (Human), UniProt P00533, L858R/T790M); experiment: Z'-LYTE kinase inhibition assay, EGFR L858R/T790M; format: biochemical; conditions: read-out: % inhibition against EGFR L858R/T790M (Compound at 0.0137 μM)
Protocol: Inhibitory activities of compounds against BTK, EGFR and EGFR mutants (EGFR L858R, EGFR T790M, EGFR L858R/T790M), FGFR1, FGFR2, JAK2, JAK3 and KDR were measured by Invitrogen using Z'-LYTE® Method as briefly described in the following. Test Compounds are screened in 1% DMSO (final) in the well. For 10 point titrations, 3-fold serial dilutions are conducted from the starting concentration. All ATP Solutions are diluted to a 4× working concentration in Kinase Buffer (50 mM HEPES pH 7.5, 0.01% BRIJ-35, 10 mM MgCl2, 1 mM EGTA). Peptide/Kinase Mixtures are diluted to a 2× working concentration in the appropriate Kinase Buffers as described below. (iv) Peptide/Kinase Mixtures for Measurement of EGFR (ErbB1) T790M L858R: The 2×EGFR (ErbB1) […] mixture is prepared in 50 mM HEPES pH 6.5, 0.01% BRIJ-35, 10 mM MgCl2, 1 mM EGTA, 0.02% NaN3. […] After the 1 hour Kinase Reaction incubation, 5 μL of a 1:64 dilution of Development Reagent B is added. Reaction starts by 30-second shaking of mixture consisting of 2.5 μL 4× test compound, […] 2× kinase reaction mixture and 2.5 μL 4×ATP Solution on Bar-coded Corning, low volume NBS, black 384-well plate (Corning Cat. #3676). Then the mixture is incubated for 60-minute at room temperature for the kinase reaction, followed by addition of 5 μL of a 1:1024 dilution of development reagent A and 30-second plate shake. The mixture is then incubated for another 60-minute at room temperature for development reaction. Finally fluorescence is read by plate reader. To determine IC50 of a compound against EGFR, EGFR mutant and other kinases, a series of concentrations of the compound were tested for the inhibition.

[2] = molecular target: EGFR (ErbB1) (Homo sapiens (Human), UniProt P00533); experiment: Z'-LYTE kinase inhibition assay, EGFR; format: biochemical; conditions: read-out: % inhibition against EGFR (Compound at 0.041 μM)
Protocol: Inhibitory activities of compounds against BTK, EGFR and EGFR mutants (EGFR L858R, EGFR T790M, EGFR L858R/T790M), FGFR1, FGFR2, JAK2, JAK3 and KDR were measured by Invitrogen using Z'-LYTE® Method as briefly described in the following. Test Compounds are screened in 1% DMSO (final) in the well. For 10 point titrations, 3-fold serial dilutions are conducted from the starting concentration. All ATP Solutions are diluted to a 4× working concentration in Kinase Buffer (50 mM HEPES pH 7.5, 0.01% BRIJ-35, 10 mM MgCl2, 1 mM EGTA). Peptide/Kinase Mixtures are diluted to a 2× working concentration in the appropriate Kinase Buffers as described below. (i) Peptide/Kinase Mixtures for Measurement of EGFR (ErbB1): The 2×EGFR (ErbB1)/[…] mixture is prepared in 50 mM HEPES pH 7.5, 0.01% BRIJ-35, 10 mM MgCl2. 4 mM MnCl2, 1 mM EGTA, 2 mM DTT. The final 10 μL Kinase Reaction consists of 1.1-5.25 ng EGFR (ErbB1) and 2 μM […] in 50 mM HEPES pH 7.5, 0.01% BRIJ-35, 10 mM MgCl2, 2 mM MnCl2. 1 mM EGTA, 1 mM DTT. After the 1 hour Kinase Reaction incubation, 5 μL of a 1:64 dilution of Development Reagent B is added. Reaction starts by 30-second shaking of mixture consisting of 2.5 μL 4× test compound, […] 2× kinase reaction mixture and 2.5 μL 4×ATP Solution on Bar-coded Corning, low volume NBS, black 384-well plate (Corning Cat. #3676). Then the mixture is incubated for 60-minute at room temperature for the kinase reaction, followed by addition of 5 μL of a 1:1024 dilution of development reagent A and 30-second plate shake. The mixture is then incubated for another 60-minute at room temperature for development reaction. Finally fluorescence is read by plate reader. To determine IC50 of a compound against EGFR, EGFR mutant and other kinases, a series of concentrations of the compound were tested for the inhibition.

[3] = test system: H1975 cells; experiment: Inhibition of cancer cell growth, MTT assay, H1975; conditions: Homo sapiens, NCI-H1975, 72 h, read-out: IC50 in H1975 cells

EGFR (ErbB1) T790M L858R, sequence (P00533 25-1210 T790M/L858R): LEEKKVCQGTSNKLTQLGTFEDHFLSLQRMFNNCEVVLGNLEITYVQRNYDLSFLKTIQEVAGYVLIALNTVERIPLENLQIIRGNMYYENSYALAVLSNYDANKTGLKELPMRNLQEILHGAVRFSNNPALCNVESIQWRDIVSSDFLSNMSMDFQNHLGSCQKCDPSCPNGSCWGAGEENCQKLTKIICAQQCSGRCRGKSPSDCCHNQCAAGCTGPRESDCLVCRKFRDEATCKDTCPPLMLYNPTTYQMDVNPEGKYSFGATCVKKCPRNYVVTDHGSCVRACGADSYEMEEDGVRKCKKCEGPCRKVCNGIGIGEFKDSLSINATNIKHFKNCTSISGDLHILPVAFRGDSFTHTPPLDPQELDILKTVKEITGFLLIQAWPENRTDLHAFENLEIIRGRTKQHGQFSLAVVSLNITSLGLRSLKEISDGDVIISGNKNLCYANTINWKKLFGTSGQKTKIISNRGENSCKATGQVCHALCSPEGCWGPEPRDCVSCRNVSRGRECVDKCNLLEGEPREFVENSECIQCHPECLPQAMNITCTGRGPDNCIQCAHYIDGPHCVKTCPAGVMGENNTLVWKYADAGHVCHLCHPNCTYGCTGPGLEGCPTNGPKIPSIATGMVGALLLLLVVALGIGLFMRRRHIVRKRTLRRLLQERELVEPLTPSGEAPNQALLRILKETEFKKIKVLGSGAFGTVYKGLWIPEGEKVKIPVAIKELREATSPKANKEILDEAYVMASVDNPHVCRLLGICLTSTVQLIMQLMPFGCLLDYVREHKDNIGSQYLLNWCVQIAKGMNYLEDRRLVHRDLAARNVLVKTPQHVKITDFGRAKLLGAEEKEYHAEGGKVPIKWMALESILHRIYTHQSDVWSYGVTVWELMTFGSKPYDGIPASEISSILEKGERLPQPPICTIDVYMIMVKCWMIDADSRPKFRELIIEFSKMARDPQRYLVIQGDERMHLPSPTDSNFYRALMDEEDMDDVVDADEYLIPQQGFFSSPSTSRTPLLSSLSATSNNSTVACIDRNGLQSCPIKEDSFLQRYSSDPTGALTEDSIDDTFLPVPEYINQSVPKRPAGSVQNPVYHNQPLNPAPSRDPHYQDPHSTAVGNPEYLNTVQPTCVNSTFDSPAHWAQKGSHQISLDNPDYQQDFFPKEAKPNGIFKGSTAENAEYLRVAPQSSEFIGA
EGFR (ErbB1), sequence (P00533 25-1210): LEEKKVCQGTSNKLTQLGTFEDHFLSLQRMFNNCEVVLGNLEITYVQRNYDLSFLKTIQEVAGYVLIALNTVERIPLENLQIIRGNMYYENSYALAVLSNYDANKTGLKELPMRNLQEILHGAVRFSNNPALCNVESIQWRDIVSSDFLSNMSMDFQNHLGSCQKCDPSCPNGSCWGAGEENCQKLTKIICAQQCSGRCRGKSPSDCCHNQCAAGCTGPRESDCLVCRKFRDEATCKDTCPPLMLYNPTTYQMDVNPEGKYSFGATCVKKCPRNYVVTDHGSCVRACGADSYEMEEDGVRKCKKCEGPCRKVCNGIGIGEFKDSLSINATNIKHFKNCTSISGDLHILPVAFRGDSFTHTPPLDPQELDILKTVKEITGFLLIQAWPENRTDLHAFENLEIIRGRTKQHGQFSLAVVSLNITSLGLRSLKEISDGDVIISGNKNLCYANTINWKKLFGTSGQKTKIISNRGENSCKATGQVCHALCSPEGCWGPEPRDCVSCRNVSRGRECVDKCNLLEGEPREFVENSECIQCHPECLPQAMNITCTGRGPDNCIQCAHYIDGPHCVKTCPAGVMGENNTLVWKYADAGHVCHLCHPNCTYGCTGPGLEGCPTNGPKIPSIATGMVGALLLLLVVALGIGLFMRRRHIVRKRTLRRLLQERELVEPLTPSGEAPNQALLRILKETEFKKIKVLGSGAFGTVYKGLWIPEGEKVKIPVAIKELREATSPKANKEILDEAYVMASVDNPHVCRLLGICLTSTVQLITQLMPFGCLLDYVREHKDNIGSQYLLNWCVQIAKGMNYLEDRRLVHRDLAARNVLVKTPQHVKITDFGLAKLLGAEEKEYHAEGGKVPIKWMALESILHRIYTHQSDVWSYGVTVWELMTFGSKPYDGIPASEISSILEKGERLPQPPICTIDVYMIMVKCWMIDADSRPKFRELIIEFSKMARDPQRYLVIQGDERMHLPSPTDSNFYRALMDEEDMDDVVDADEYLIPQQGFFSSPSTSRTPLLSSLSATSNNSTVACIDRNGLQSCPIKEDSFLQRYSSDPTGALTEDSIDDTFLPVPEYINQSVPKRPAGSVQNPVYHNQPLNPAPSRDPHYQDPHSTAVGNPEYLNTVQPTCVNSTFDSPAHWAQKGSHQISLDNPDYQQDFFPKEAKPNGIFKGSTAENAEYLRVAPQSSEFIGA

SMILES | inhibition at 0.0137 µM [1] | inhibition at 0.041 µM [2] | IC50 [3]
C=CC(=O)Nc1cccc(-c2cccc3cnc(Nc4cc(F)c(N5CCN(C)CC5)c(F)c4)nc23)c1 [Example C146, N-(3-(2-((3,5-difluoro-4-(4-methylpiperazin-1-yl)phenyl)amino)quinazolin-8-yl)phenyl)acrylamide] | > 50% | < 50% | < 100 nM
C=CC(=O)Nc1cccc(-c2cccc3cnc(Nc4c(F)cc(N5CCN(C)CC5)cc4F)nc23)c1 [Example C148, N-(3-(2-((2,6-difluoro-4-(4-methylpiperazin-1-yl)phenyl)amino)quinazolin-8-yl)phenyl)acrylamide] | < 50% | < 50% | < 100 nM
C=CC(=O)Nc1cccc(-c2cccc3cnc(Nc4ccc(O[C@H]5CCN(C(C)=O)C5)cc4)nc23)c1 [Example C131, (S)-N-(3-(2-((4-((1-acetylpyrrolidin-3-yl)oxy)phenyl)amino)quinazolin-8-yl)phenyl)acrylamide] | < 50% | < 50% | < 100 nM
C=CC(=O)Nc1cccc(-c2cccc3cnc(Nc4ccc(N5CCN(CCOC)CC5)cc4F)nc23)c1 [Example C153, N-(3-(2-((2-fluoro-4-(4-(2-methoxyethyl)piperazin-1-yl)phenyl)amino)quinazolin-8-yl)phenyl)acrylamide] | < 50% | < 50% | < 100 nM
C=CC(=O)Nc1cc(-c2cccc3cnc(Nc4ccc(N5CCN(C)CC5)cc4)nc23)n[nH]1 [Example C132, N-(3-(2-((4-(4-methylpiperazin-1-yl)phenyl)amino)quinazolin-8-yl)-1H-pyrazol-5-yl)acrylamide] | < 50% | < 50% | 100 to 500 nM
CC(=O)N1CCN(c2ccc(Nc3ncc4cccc(-c5cccc(NC(=O)/C=C/CN(C)C)c5)c4n3)cc2)CC1 [Example C050, (E)-N-(3-(2-((4-(4-acetylpiperazin-1-yl)phenyl)amino)quinazolin-8-yl)phenyl)-4-(dimethylamino)but-2-enamide] | > 50% | < 50% | > 500 nM
C=CC(=O)Nc1ccc(Cl)c(-c2cccc3cnc(Nc4ccc(N5CCN(C)CC5)cc4)nc23)c1 [Example C073, N-(4-chloro-3-(2-((4-(4-methylpiperazin-1-yl)phenyl)amino)quinazolin-8-yl)phenyl)acrylamide] | > 50% | < 50% | 100 to 500 nM
C=CC(=O)Nc1cccc(-c2cccc3cnc(Nc4ccc(NCC(F)F)cc4)nc23)c1 [Example C135, N-(3-(2-((4-((2,2-difluoroethyl)amino)phenyl)amino)quinazolin-8-yl)phenyl)acrylamide] | < 50% | < 50% | < 100 nM
C=CC(=O)N1CCN(c2cccc3cnc(Nc4ccc(N5CCN(C)CC5)cc4)nc23)CC1 [Example C070, 1-(4-(2-((4-(4-methylpiperazin-1-yl)phenyl)amino)quinazolin-8-yl)piperazin-1-yl)prop-2-en-1-one] | < 50% | < 50% | > 500 nM
C=CC(=O)Nc1cccc(-c2cccc3cnc(Nc4ccc(N5CCN(C)C(C(=O)OC)C5)cc4)nc23)c1 (stereo not drawn) [Example C089, methyl 4-(4-((8-(3-acrylamidophenyl)quinazolin-2-yl)amino)phenyl)-1-methylpiperazine-2-carboxylate] | < 50% | < 50% | 100 to 500 nM
CCC(=O)Nc1cccc(-c2c(C)ccc3cnc(Nc4ccc(N5CCN(C)CC5)cc4)nc23)c1 [Example C042, N-(3-(7-methyl-2-((4-(4-methylpiperazin-1-yl)phenyl)amino)quinazolin-8-yl)phenyl)propionamide] | < 50% | > 50% | > 500 nM
C=CC(=O)Nc1cccc(-c2cccc3cnc(Nc4ccc(N5CCN(C)C(C(N)=O)C5)cc4)nc23)c1 (stereo not drawn) [Example C093, 4-(4-((8-(3-acrylamidophenyl)quinazolin-2-yl)amino)phenyl)-1-methylpiperazine-2-carboxamide] | > 50% | < 50% | 100 to 500 nM
C=CC(=O)Nc1cccc(-c2cccc3cnc(Nc4ccc(N5CCN(C(=O)CC)CC5)cc4)nc23)c1 [Example C084, N-(3-(2-((4-(4-propionylpiperazin-1-yl)phenyl)amino)quinazolin-8-yl)phenyl)acrylamide] | > 50% | < 50% | 100 to 500 nM
C=CC(=O)Nc1cccc(-c2cccc3cnc(Nc4ccc(O[C@@H]5CCN(C(C)=O)C5)cc4)nc23)c1 [Example C133, (R)-N-(3-(2-((4-((1-acetylpyrrolidin-3-yl)oxy)phenyl)amino)quinazolin-8-yl)phenyl)acrylamide] | < 50% | < 50% | 100 to 500 nM
C=CC(=O)Nc1cccc(-c2cccc3cnc(Nc4ccc(N(C)CCF)cc4)nc23)c1F [Example C065, N-(2-fluoro-3-(2-((4-((2-fluoroethyl)(methyl)amino)phenyl)amino)quinazolin-8-yl)phenyl)acrylamide] | < 50% | < 50% | 100 to 500 nM
C=CC(=O)Nc1cccc(-c2cccc3cnc(Nc4ccc(N5CCN(C(=O)OC)CC5)cc4)nc23)c1 [Example C076, methyl 4-(4-((8-(3-acrylamidophenyl)quinazolin-2-yl)amino)phenyl)piperazine-1-carboxylate] | < 50% | < 50% | > 500 nM
C=CC(=O)Nc1cccc(-c2cccc3cnc(Nc4ccc(N5CCN(CC(N)=O)CC5)cc4F)nc23)c1 [Example C154, N-(3-(2-((4-(4-(2-amino-2-oxoethyl)piperazin-1-yl)-2-fluorophenyl)amino)quinazolin-8-yl)phenyl)acrylamide] | < 50% | < 50% | 100 to 500 nM
CN(C)C/C=C/C(=O)Nc1cccc(-c2cccc3cnc(Nc4ccc(N5CCN(C)CC5)cc4)nc23)c1F [Example C062, (E)-4-(dimethylamino)-N-(2-fluoro-3-(2-((4-(4-methylpiperazin-1-yl)phenyl)amino)quinazolin-8-yl)phenyl)but-2-enamide] | > 50% | > 50% | 100 to 500 nM
C=CC(=O)Nc1cccc(-c2cccc3cnc(Nc4ccc(N5CCN(S(C)(=O)=O)CC5)cc4)nc23)c1 [Example C092, N-(3-(2-((4-(4-(methylsulfonyl)piperazin-1-yl)phenyl)amino)quinazolin-8-yl)phenyl)acrylamide] | < 50% | < 50% | 100 to 500 nM
C=CC(=O)Nc1cccc(-c2cccc3cnc(Nc4ccc(N5CCCC5=O)cc4)nc23)c1 [Example C096, N-(3-(2-((4-(2-oxopyrrolidin-1-yl)phenyl)amino)quinazolin-8-yl)phenyl)acrylamide] | < 50% | < 50% | < 100 nM
